In paper doi:10.1101/2025.07.01.662609v1, “BtuJ1, a novel surface-exposed B12-binding protein in Bacteroidetes, functions as an extracellular vitamin reservoir that enhances fitness” (biorxiv, 2025):

Target: T1, BtuJ1 (BT1491) (Bacteroides thetaiotaomicron, UniProt Q8A7N3)
T1 construct: gene BT_1491; mature part without lipid anchor residue (signal peptide cleaved between 21 and 22); His-tagged, pET28 NcoI/XhoI, E. coli BL21(DE3); modelled from Met29
T1 sequence (Q8A7N3 23-256): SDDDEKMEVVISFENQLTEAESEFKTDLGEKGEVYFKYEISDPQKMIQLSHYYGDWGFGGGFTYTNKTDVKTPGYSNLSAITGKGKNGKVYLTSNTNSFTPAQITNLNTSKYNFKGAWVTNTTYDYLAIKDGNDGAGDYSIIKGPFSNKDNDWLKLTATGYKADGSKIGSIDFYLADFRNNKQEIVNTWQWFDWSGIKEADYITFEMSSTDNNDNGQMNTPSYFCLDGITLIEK
Experiment: binding shown in supplementary figure, method not stated in main text
Settings: AdoCbl added at 1:2 protein:corrinoid, then SEC in 10 mM Hepes, 100 mM NaCl, pH 7.5

Question: With `C/C1=C2/[N-][C@H]([C@H](CC(N)=O)[C@@]2(C)CCC(=O)NC[C@@H](C)OP(=O)([O-])O[C@H]2C(O)[C@@H](n3cnc4cc(C)c(C)cc43)O[C@@H]2CO)[C@]2(C)N=C(/C(C)=C3N=C(/C=C4N=C1[C@@H](CCC(N)=O)C\4(C)C)[C@@H](CCC(N)=O)[C@]\3(C)CC(N)=O)[C@@H](CCC(N)=O)[C@]2(C)CC(N)=O.[CH2-][C@H]1O[C@@H](n2cnc3c(N)ncnc32)[C@H](O)[C@@H]1O.[Co+3]` (stereo partly shown) [AdoCbl, adenosylcobalamin] as the compound, how does the “binding shown in supplementary figure, method not stated in main text” value read?
Answer: Its value is “BtuJ1 also binds adenosylcobalamin, which has a bulkier upper ligand compared to other cobalamins”.
